In US20230108906A1, “SUBSTITUTED BICYCLIC AND TRICYCLIC UREAS AND AMIDES, ANALOGUES THEREOF, AND METHODS USING SAME” (Arbutus Biopharma Corporation, priority 2019, published 2023):
Read-outs that look alike come from different tables or passages of the source.

Test system: HBV rcDNA in HepDE19 cells
Test: HepDE19 assay with bDNA quantitation of HBV rcDNA
Format: cell-based, hepatitis B virus (HBV)
Conditions: Hepatitis B virus, HepDE19, 168 h
In short: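 HepDE19 cells (HepG2-derived, Tet-regulated HBV) switched to Tet-free medium, then treated 7 days at 37 °C with compound, 8-point titration from 25 μM, 0.5% DMSO. rcDNA quantified by bDNA with HBV probes; EC50/EC90 via 4-parameter fit. Viability (CC50) by CellTiter-Glo ATP on 5,000 cells/well after 4 days.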

[1] = inhibition of rcDNA formation in HepDE19 cells (HepG2 derived), Tet-free medium, 7 day incubation, Quantigene 2.0 bDNA readout, top concentration 25 μM, read-out: DE-19bDNA EC50

## CN(C(=O)Nc1ccc(Cl)c(Cl)c1)[C@@H]1COCc2[nH]c(=O)c3cc(F)c(F)cc3c21 [Compound 143, (S)-3-(3,4-Dichlorophenyl)-1-(8,9-difluoro-6-oxo-1,4,5,6-tetrahydro-2H-pyrano[3,4-c]isoquinolin-1-yl)-1-methylurea]
[1]
  EC50: 0.02 µM

## CN(C(=O)NC1(C(F)(F)F)CC1)C1CCCc2[nH]c(=O)c3cc(F)c(F)cc3c21 (stereo not drawn) [Compound 144, 1-(8,9-Difluoro-6-oxo-1,2,3,4,5,6-hexahydrophenanthridin-1-yl)-1-methyl-3-(1-(trifluoromethyl)cyclopropyl)urea]
[1]
  EC50: 20 µM

## CN(C(=O)NC1(C(F)(F)F)CC1)[C@@H]1COCc2[nH]c(=O)c3cc(F)c(F)cc3c21 [Compound 145, (S)-1-(8,9-Difluoro-6-oxo-1,4,5,6-tetrahydro-2H-pyrano[3,4-c]isoquinolin-1-yl)-1-methyl-3-(1-(trifluoromethyl)cyclopropyl)urea]
[1]
  EC50: 9 µM

## COc1ccc(NC(=O)N(C)[C@@H]2COCc3[nH]c(=O)c4cc(F)c(F)cc4c32)cc1Cl [Compound 147, (S)-3-(3-Chloro-4-methoxyphenyl)-1-(8,9-difluoro-6-oxo-1,4,5,6-tetrahydro-2H-pyrano[3,4-c]isoquinolin-1-yl)-1-methylurea]
read-out: DE-19bDNA EC50 (uM), inhibition of rcDNA formation in HepDE19 cells (HepG2 derived), Tet-free medium, 7 day incubation, Quantigene 2.0 bDNA readout, top concentration 25 μM
  EC50: 0.14 µM

## CN(C(=O)Nc1ccc(O)c(Cl)c1)[C@@H]1COCc2[nH]c(=O)c3cc(F)c(F)cc3c21 [Compound 148, (S)-3-(3-Chloro-4-hydroxyphenyl)-1-(8,9-difluoro-6-oxo-1,4,5,6-tetrahydro-2H-pyrano[3,4-c]isoquinolin-1-yl)-1-methylurea]
[1]
  EC50: 0.76 µM

## CN(C(=O)Nc1ccc(F)c(Cl)c1)C1COC(O)c2[nH]c(=O)c3cc(F)c(F)cc3c21 (stereo not drawn) [Compound 151, 3-(3-Chloro-4-fluorophenyl)-1-(8,9-difluoro-4-hydroxy-6-oxo-1,4,5,6-tetrahydro-2H1-pyrano[3,4-c]isoquinolin-1-yl)-1-methylurea]
[1]
  EC50: 0.02 µM

## CN1Cc2[nH]c(=O)c3cc(F)c(F)cc3c2C(N(C)C(=O)Nc2ccc(F)c(C#N)c2)C1 (stereo not drawn) [Compound 173, 3-(3-Cyano-4-fluorophenyl)-1-(8,9-difluoro-3-methyl-6-oxo-1,2,3,4,5,6-hexahydrobenzo[c][1,7]naphthyridin-1-yl)-1-methylurea]
[1]
  EC50: 13 µM

## CN(C(=O)Nc1ccc(F)c(Cl)c1)C1C[S+]([O-])Cc2[nH]c(=O)c3cc(F)ccc3c21 (stereo not drawn) [Compound 193, 3-(3-Chloro-4-fluorophenyl)-1-(8-fluoro-3-oxido-6-oxo-1,4,5,6-tetrahydro-2H-thiopyrano[3,4-c]isoquinolin-1-yl)-1-methylurea]
[1]
  EC50: 4.4 µM

## CN(C(=O)N1Cc2ccccc2C1)[C@@H]1COCc2[nH]c(=O)c3cc(F)c(F)cc3c21 [Compound 218, (S)—N-(8,9-Difluoro-6-oxo-1,4,5,6-tetrahydro-2H-pyrano[3,4-c]isoquinolin-1-yl)-N-methylisoindoline-2-carboxamide]
[1]
  EC50: 1.2 µM

## CN(C(=O)N1Cc2ccc(Cl)cc2C1)[C@@H]1COCc2[nH]c(=O)c3cc(F)c(F)cc3c21 [Compound 219, (S)-5-Chloro-N-(8,9-difluoro-6-oxo-1,4,5,6-tetrahydro-2H-pyrano[3,4-c]isoquinolin-1-yl)-N-methylisoindoline-2-carboxamide]
[1]
  EC50: 5.9 µM

## CN(C(=O)N1Cc2ccc(Br)cc2C1)[C@@H]1COCc2[nH]c(=O)c3cc(F)c(F)cc3c21 [Compound 220, (S)-5-Bromo-N-(8,9-difluoro-6-oxo-1,4,5,6-tetrahydro-2H-pyrano[3,4-c]isoquinolin-1-yl)-N-methylisoindoline-2-carboxamide]
[1]
  EC50: 13 µM

## CN(C(=O)N1Cc2ccc(F)cc2C1)[C@@H]1COCc2[nH]c(=O)c3cc(F)c(F)cc3c21 [Compound 221, (S)—N-(8,9-Difluoro-6-oxo-1,4,5,6-tetrahydro-2H-pyrano[3,4-c]isoquinolin-1-yl)-5-fluoro-N-methylisoindoline-2-carboxamide]
[1]
  EC50: 5.9 µM
